Reference: US8119671B2, “Isoxazoline-substituted benzamide compound and pest control agent” (Nissan Chemical Industries, Ltd., priority 2007, dated 2012)

Assays:
Assay type in all cases: in vivo
Spodoptera litura = assay: Test Example 2: Mortality Test for Spodoptera litura; conditions: 144 h
Procedure: (§1) A 10% emulsifiable concentrate of the compound of the present invention (depending on the type of the compound, a 10% wettable powder was subjected to the test) was diluted with water containing a spreader to prepare a drug solution in a concentration of 10 ppm. In this drug solution, a leaf of canarium album was immersed for about 10 seconds and was air-dried and then put into a petri dish. In the petri dish, five 2 instar larvae of Spodoptera litura per petri dish were released and the petri dish was capped and stored in a thermostat room of 25° C. The number of killed larvae after 6 days was measured and the mortality was calculated from the same calculation formula as that in Test Example 1. Here, the test was carried out with two replications.

Plutella xylostella = assay: Test Example 1: Mortality Test for Plutella xylostella; conditions: 144 h
Procedure: as §1, with “Plutella xylostella” for “Spodoptera litura”, “following” for “same”, “formula: Mortality (%)=(number of killed larvae/number of released larvae)×100.” for “formula as that in Test Example 1.”

[1] = system: Frankliniella occidentalis; assay: Test Example 18: Mortality Test for Frankliniella occidentalis (Comparative Test 2); conditions: 48 h
Procedure: In a styrol cup having an inner diameter of 7 cm, a wet filtration paper was laid, and on the paper, a leaf of kidney bean cut out so as to have the same diameter as the inner diameter of the cup was laid, followed by inoculating ten 1 instar larvae of Frankliniella occidentalis per leaf to the leaf. 10% emulsifiable concentrates of the compound of the present invention and a comparative compound were diluted with water containing a spreader to prepare drug solutions in a predetermined concentration. The drug solutions were dusted using a rotary dusting tower in an amount of 2.5 mL per styrol cup, and the cup was capped and stored in a thermostat room of 25° C. The number of killed larvae after 2 days was measured and the mortality was calculated from the following calculation formula: Mortality (%)=(number of killed larvae/number of released larvae)×100. Here, the test was carried out with two replications.

Homona magnanima = assay: Test Example 3: Mortality Test for Homona magnanima; conditions: 144 h
Procedure: as §1, with “of 100” for “of 10”, “of Homona magnanima” for “of Spodoptera litura”

Liriomyza trifolii = assay: Test Example 13: Mortality Test for Liriomyza trifolii; conditions: 144 h, drug solution 500 ppm, kidney bean leaf with eggs immersed, after 6 days
Procedure: as §1, with “of 500” for “of 10”, “of kidney bean on which Liriomyza trifolii laid eggs (10 eggs/leaf) and which was cut out to a diameter of 7 cm” for “of canarium album”, “then laid on” for “then put into”, “a wet filtration paper laid in a styrol cup having an inner diameter” for “a petri dish. In the petri dish, five 2 instar larvae”, “of 7 cm. The styrol cup” for “of Spodoptera litura per petri dish were released and the petri dish”

Helicoverpa armigera = assay: Test Example 17: Mortality Test for Helicoverpa armigera (Comparative Test 1); conditions: 144 h, 3-instar larvae, after 6 days; for mortality at 3.3 ppm: concentration 3.3 ppm; for mortality at 10 ppm: concentration 10 ppm; for mortality at 33 ppm: concentration 33 ppm; for mortality at 100 ppm: concentration 100 ppm; for mortality at 0.1 ppm: concentration 0.1 ppm; for mortality at 0.3 ppm: concentration 0.3 ppm; for mortality at 1 ppm: concentration 1 ppm
Procedure: 10% emulsifiable concentrates of the compound of the present invention and a comparative compound were diluted with water containing a spreader to prepare drug solutions in a predetermined concentration. In these drug solutions, a leaf of Canarium album was immersed for about 10 seconds and was air-dried and then put into a petri dish. In the petri dish, seven 3-instar larvae of Helicoverpa armigera per petri dish were released and the petri dish was capped with a lid having pores and stored in a thermostat room of 25° C. After 2 days of the treatment, an artificial feed (1 cm^3) was added into the petri dish. The number of killed larvae after 6 days was measured and the mortality was calculated from the following calculation formula: Mortality (%)=(number of killed larvae/number of released larvae)×100. Here, the test was carried out with two replications.

Bemisia argentifolii = assay: Test Example 9: Mortality Test for Bemisia argentifolii; conditions: in Solanum lycopersicum, 144 h
Procedure: (§2) In a styrol cup having an inner diameter of 7 cm, a wet filtration paper was laid, and on the paper, a cut-out leaf of tomato on which Bemisia argentifolii laid eggs (10 eggs/leaf) was laid. A 10% emulsifiable concentrate of the compound of the present invention (depending on the type of the compound, a 10% wettable powder was subjected to the test) was diluted with water containing a spreader to prepare a drug solution in a concentration of 500 ppm. The drug solution was dusted using a rotary dusting tower in an amount of 2.5 mL per styrol cup and the cup was capped and stored in a thermostat room of 25° C. The number of killed larvae after 6 days was measured and the mortality was calculated from the same calculation formula as that in Test Example 1. Here, the test was carried out with two replications.

Myzus persicae = assay: Test Example 10: Mortality Test for Myzus persicae; conditions: 144 h
Procedure: In a glass petri dish having an inner diameter of 3 cm, a wet absorbent cotton was laid, and on the cotton, a leaf of canarium album cut out so as to have the same diameter as the inner diameter of the petri dish was laid, followed by releasing 4 apterous imagines of Myzus persicae on the leaf. After one day, 10% emulsifiable concentrate of the compound of the present invention (depending on the type of the compound, a 10% wettable powder was subjected to the test) was diluted with water containing a spreader to prepare a drug solution in a concentration of 500 ppm. The drug solution was dusted using a rotary dusting tower (2.5 mg/cm^2) and the petri dish was capped and stored in a thermostat room of 25° C. The number of killed imagines after 6 days was measured and the mortality was calculated from the same calculation formula as that in Test Example 1. Here, the test was carried out with two replications.

Planococcus kraunhiae = assay: Test Example 11: Mortality Test for Planococcus kraunhiae; conditions: 144 h
Procedure: as §2, with “a” for “a cut-out”, “kidney bean cut out so as to have the same diameter as the inner diameter of the cup” for “tomato on which Bemisia argentifolii laid eggs (10 eggs/leaf)”, “laid, followed by inoculating ten 1 instar larvae of Planococcus kraunhiae per leaf to the leaf.” for “laid.”

In the case of `CNC(N)=NC(=O)c1ccc(C2=NOC(c3cc(Cl)cc(Cl)c3)(C(F)(F)F)C2)cc1C` (centres unmarked) [No. 2-012, N-[Amino(methylamino)methylidene]-4-[5-(3,5-dichlorophenyl)-5-trifluoromethyl-4,5-dihydroisoxazole-3-yl]-2-methyl benzoic acid amide], the mortality at 100 ppm (Spodoptera litura) is reported as at least 80% and the mortality at 100 ppm (Plutella xylostella) is reported as at least 80%.

`CCNC(=O)NC(=O)c1ccc(C2=NOC(c3cc(Cl)cc(Cl)c3)(C(F)(F)F)C2)cc1C` (centres unmarked) [Comparative compound D] gave a mortality at 3.3 ppm [1] of 0%, a mortality at 10 ppm [1] of 45.7% and a mortality at 33 ppm [1] of 100%. The mortality at 100 ppm [1] was 100%.

With `CSC(N)=NC(=O)c1ccc(C2=NOC(c3cc(Cl)cc(Cl)c3)(C(F)(F)F)C2)cc1C` (centres unmarked) [No. 2-010, N-(Amino(methylthio)methylidene)-4-(5-(3,5-dichlorophenyl)-5-trifluoromethyl-4,5-dihydroisoxazole-3-yl)-2-methyl benzoic acid amide] the mortality at 100 ppm (Homona magnanima) was at least 80% and the mortality at 500 ppm (Liriomyza trifolii) was at least 80%.

`COC(=NC(=O)c1ccc(C2=NOC(c3cc(Cl)cc(Cl)c3)(C(F)(F)F)C2)cc1C)SC` (centres unmarked) [Comparative compound B, reference compound] gave a mortality at 3.3 ppm (Helicoverpa armigera) of 35.7%, a mortality at 10 ppm (Helicoverpa armigera) of 71.4% and a mortality at 33 ppm (Helicoverpa armigera) of 85.7%. For the same molecule, the mortality at 100 ppm (Helicoverpa armigera) was 100%.

`O=C(N[C@H]1C[C@@H]1c1ccccc1)c1ccc(C2=NOC(c3ccc(Cl)c(Cl)c3)(C(F)(F)F)C2)cc1` (some centres unmarked) [Comparative compound C] was tested, and the mortality at 3.3 ppm [1] was 0%, the mortality at 10 ppm [1] was 0% and the mortality at 33 ppm [1] was 0%. For the same molecule, the mortality at 100 ppm [1] was 0%.

Work on `CNC(=NC(=O)c1ccc(C2=NOC(c3cc(Cl)cc(Cl)c3)(C(F)(F)F)C2)cc1C)OC` (centres unmarked) [No. 3-001, N-[Methoxy(methylamino)methylidene]-4-[5-(3,5-dichlorophenyl)-5-trifluoromethyl-4,5-dihydroisoxazole-3-yl]-2-methyl benzoic acid amide] yielded a mortality at 500 ppm (Bemisia argentifolii) of at least 80%, a mortality at 100 ppm (Homona magnanima) of at least 80% and a mortality at 500 ppm (Myzus persicae) of at least 80%. The mortality at 0.1 ppm (Helicoverpa armigera) was 0%, the mortality at 0.3 ppm (Helicoverpa armigera) was 21.4% and the mortality at 1 ppm (Helicoverpa armigera) was 71.4%. The mortality at 3.3 ppm (Helicoverpa armigera) was 100%, the mortality at 10 ppm (Helicoverpa armigera) was 100% and the mortality at 500 ppm (Planococcus kraunhiae) was at least 80%.

`COC(N)=NC(=O)c1ccc(C2=NOC(c3cc(Cl)cc(Cl)c3)(C(F)(F)F)C2)cc1C` (centres unmarked) [No. 2-003, N-[Amino(methoxy)methylidene]-4-[5-(3,5-dichlorophenyl)-5-trifluoromethyl-4,5-dihydroisoxazole-3-yl]-2-methyl benzoic acid amide] was tested, and the mortality at 100 ppm (Homona magnanima) was at least 80%, the mortality at 0.1 ppm (Helicoverpa armigera) was 57.1% and the mortality at 0.3 ppm (Helicoverpa armigera) was 85.7%. It also gave a mortality at 1 ppm (Helicoverpa armigera) of 100%, a mortality at 3.3 ppm (Helicoverpa armigera) of 100% and a mortality at 10 ppm (Helicoverpa armigera) of 100%.

With `CNC(=O)NC(=O)c1ccc(C2=NOC(c3cc(Cl)cc(Cl)c3)(C(F)(F)F)C2)cc1C` (centres unmarked) [Comparative compound A, reference compound] the mortality at 3.3 ppm (Helicoverpa armigera) was 21.4%, the mortality at 10 ppm (Helicoverpa armigera) was 92.9% and the mortality at 33 ppm (Helicoverpa armigera) was 100%. For the same molecule, the mortality at 100 ppm (Helicoverpa armigera) was 100%.
